In ChEMBL document CHEMBL6103559, “Marine actinomycetes-derived angucyclines and angucyclinones with biosynthesis and activity--past 10 years (2014-2023)” (Eur J Med Chem, 2025):
Values after ≈ are worked out from the molar mass of the structure shown.

What was measured:
Escherichia coli [1] = experiment: Antibacterial activity against multi-drug resistant Escherichia coli CCARM 1009 assessed as inhibition of bacterial growth incubated for 18 hrs by microplate reader analysis; type: functional
Enterococcus faecalis = experiment: Antibacterial activity against multi-drug resistant Enterococcus faecalis CCARM 5172 assessed as inhibition of bacterial growth incubated for 18 hrs by microplate reader analysis; type: functional
Staphylococcus aureus [2] = experiment: Antibacterial activity against multi-drug resistant Staphylococcus aureus CCARM 3090 assessed as inhibition of bacterial growth incubated for 18 hrs by microplate reader analysis; type: functional
Enterococcus faecium = experiment: Antibacterial activity against multi-drug resistant Enterococcus faecium CCARM 5203 assessed as inhibition of bacterial growth incubated for 18 hrs by microplate reader analysis; type: functional
Salmonella typhimurium = experiment: Antibacterial activity against multi-drug resistant Salmonella Typhimurium CCARM 8250 assessed as inhibition of bacterial growth incubated for 18 hrs by microplate reader analysis; type: functional, Salmonella enterica subsp. enterica serovar Typhimurium; details: Salmonella enterica
MDA-MB-231 [3] = experiment: Cytotoxicity against human MDA-MB-231 cells by SRB assay; type: functional, cell-based
SK-HEP1 = experiment: Cytotoxicity against human SK-HEP1 cells by SRB assay; type: functional, cell-based
A549 [4] = experiment: Cytotoxicity against human A549 cells by SRB assay; type: functional, cell-based
SNU-638 = experiment: Cytotoxicity against human SNU-638 cells by SRB assay; type: functional, cell-based
HCT-116 [5] = experiment: Cytotoxicity against human HCT-116 cells by SRB assay; type: functional, cell-based
Staphylococcus aureus [6] = experiment: Antibacterial activity against methicillin-resistant Staphylococcus aureus assessed as reduction in microbial growth by CLSI based broth microdilution method; type: functional
NCI-H69 = experiment: Cytotoxicity against human NCI-H69 cells assessed as reduction in cell growth by MTT assay; type: functional, cell-based
H69AR = experiment: Cytotoxicity against human NCI-H69AR cells assessed as reduction in cell growth by MTT assay; type: functional, cell-based
MDA-MB-231 [7] = experiment: Cytotoxicity against human MDA-MB-231 cells assessed as reduction in cell growth by MTT assay; type: functional, cell-based
ASPC1 = experiment: Cytotoxicity against human ASPC1 cells assessed as reduction in cell growth by MTT assay; type: functional, cell-based
K562 = experiment: Cytotoxicity against human K562 cells assessed as reduction in cell growth by MTT assay; type: functional, cell-based
PC-3 [8] = experiment: Growth inhibition of human PC-3 cells after 48 hrs by sulforhodamine B assay; type: functional
HCT-15 = experiment: Growth inhibition of human HCT-15 cells after 48 hrs by sulforhodamine B assay; type: functional
MDA-MB-231 [9] = experiment: Growth inhibition of human MDA-MB-231 cells after 48 hrs by sulforhodamine B assay; type: functional
NUGC-3 = experiment: Growth inhibition of human NUGC-3 cells after 48 hrs by sulforhodamine B assay; type: functional
NCI-H23 = experiment: Growth inhibition of human NCI-H23 cells after 48 hrs by sulforhodamine B assay; type: functional
ACHN = experiment: Growth inhibition of human ACHN cells after 48 hrs by sulforhodamine B assay; type: functional
PC-3 [10] = experiment: Cytotoxicity against human PC-3 cells; type: functional, cell-based
Jurkat = experiment: Cytotoxicity against human Jurkat T cells; type: functional, cell-based
HepG2 [11] = experiment: Cytotoxicity against human HepG2 cells assessed as reduction in cell viability incubated for 48 hrs by MTT assay; type: functional, cell-based; details: HepG2, 48 h
HCT-116 [12] = experiment: Cytotoxicity against human HCT-116 cells assessed as reduction in cell viability incubated for 48 hrs by MTT assay; type: functional, cell-based; details: HCT-116, 48 h
MDA-MB-231 [13] = experiment: Cytotoxicity against human MDA-MB-231 cells assessed as reduction in cell viability incubated for 48 hrs by MTT assay; type: functional, cell-based; details: MDA-MB-231, 48 h
NCI-H460 = experiment: Cytotoxicity against human NCI-H460 cells assessed as reduction in cell viability incubated for 48 hrs by MTT assay; type: functional, cell-based; details: NCI-H460, 48 h
MDA-MB-435 = experiment: Cytotoxicity against human MDA-MB-435 cells assessed as reduction in cell viability incubated for 48 hrs by MTT assay; type: functional, cell-based; details: MDA-MB-435, 48 h
MCF-10A = experiment: Cytotoxicity against human MCF-10A cells assessed as reduction in cell viability incubated for 48 hrs by MTT assay; type: functional, cell-based
Candida albicans = experiment: Antifungal activity against Candida albicans assessed as reduction in […] growth measured for 12 hrs by broth micro-dilution method; type: functional
Staphylococcus aureus [14] = experiment: Antibacterial activity against Staphylococcus aureus ATCC 43300 assessed as reduction in bacterial growth measured for 12 hrs by broth micro-dilution method; type: functional
MCF7 = experiment: Cytotoxicity against human MCF7 cells assessed as reduction in cell growth incubated for 72 hrs by SRB assay; type: functional, cell-based; details: MCF7, 72 h
HepG2 [15] = experiment: Cytotoxicity against human HepG2 cells assessed as reduction in cell growth incubated for 72 hrs by SRB assay; type: functional, cell-based; details: HepG2, 72 h
A549 [16] = experiment: Cytotoxicity against human A549 cells assessed as reduction in cell growth incubated for 72 hrs by SRB assay; type: functional, cell-based; details: A549, 72 h
SF-268 = experiment: Cytotoxicity against human SF-268 cells assessed as reduction in cell growth incubated for 72 hrs by SRB assay; type: functional, cell-based; details: SF-268, 72 h
PC-3 [17] = experiment: Cytotoxicity against human PC-3 cells assessed as reduction in cell growth by SRB assay; type: functional, cell-based
A2780 = experiment: Cytotoxicity against human A2780 cells assessed as reduction in cell growth by SRB assay; type: functional, cell-based
Pseudomonas aeruginosa = experiment: Antimicrobial activity against Pseudomonas aeruginosa CMCC(B) 10104 assessed as reduction in microbial growth measured for 18 hrs; type: functional
Bacillus subtilis = experiment: Antibacterial activity against Bacillus subtilis CMCC(B) 63501 assessed as reduction in microbial growth measured for 18 hrs; type: functional
Klebsiella pneumoniae = experiment: Antibacterial activity against Klebsiella pneumoniae CMCC(B) 46117 assessed as reduction in microbial growth measured for 18 hrs; type: functional
Escherichia coli [18] = experiment: Antibacterial activity against Escherichia coli CMCC(B) 44102 assessed as reduction in microbial growth measured for 18 hrs; type: functional
Staphylococcus aureus [19] = experiment: Antimicrobial activity against methicillin-resistant Staphylococcus aureus assessed as reduction in microbial growth measured for 18 hrs; type: functional
BT-549 = experiment: Cytotoxicity against human BT-549 cells; type: functional, cell-based
MDA-MB-468 = experiment: Cytotoxicity against human MDA-MB-468 cells; type: functional, cell-based
MDA-MB-231 [20] = experiment: Cytotoxicity against human MDA-MB-231 cells; type: functional, cell-based

C[C@@H]1O[C@@H](O[C@H]2[C@H](O)C[C@H](c3ccc4c(c3O)C(=O)c3ccc(C[C@@](C)(O)CC(=O)O)c(O)c3C4=O)O[C@@H]2C)CC[C@@H]1O
MIC (Escherichia coli [1]): 3.12 µg/mL (≈ 5.19 µM) | MIC (Enterococcus faecalis): 3.12 µg/mL (≈ 5.19 µM) | MIC (Staphylococcus aureus [2]): 3.12 µg/mL (≈ 5.19 µM) | MIC (Enterococcus faecium): 3.12 µg/mL (≈ 5.19 µM) | MIC (Salmonella typhimurium): 3.12 µg/mL (≈ 5.19 µM)

COc1cccc2c1C(=O)O[C@H]2c1c(O)ccc2c1C(=O)C[C@@H](C)[C@@H]2O
IC50 (MDA-MB-231 [3]): 6700 nM | IC50 (SK-HEP1): 6700 nM | IC50 (A549 [4]): 6700 nM | IC50 (SNU-638): 6700 nM | IC50 (HCT-116 [5]): 6700 nM

CC(C)C1(O)CC(=O)c2c(cc(O)c3c2C(=O)c2cccc(O)c2C3=O)C1=O (stereo not given)
MIC (Staphylococcus aureus [6]): 3.12 µg/mL

CC(C)C1(O)CC(=O)c2c(cc(O)c3c2C(=O)c2cccc(O)c2C3=O)C1 (stereo not given)
MIC (Staphylococcus aureus [6]): 3.12 µg/mL

CC1=CC(=O)[C@]2(O)[C@](O)(CC[C@@]34O[C@@]23C(=O)c2cccc(O)c2C4=O)C1
IC50 (NCI-H69): 320 nM | IC50 (H69AR): 320 nM | IC50 (MDA-MB-231 [7]): 320 nM | IC50 (ASPC1): 320 nM | IC50 (K562): 320 nM

CSC1=CC2=C(C(=O)c3ccc([C@H]4C[C@@H](O[C@H]5CC[C@H](O[C@H]6C[C@@H](O)[C@H](O)[C@@H](C)O6)[C@H](C)O5)[C@H](O)CO4)c(O)c3C2=O)[C@@]2(O)C(=O)C[C@](C)(O)C[C@@]12O
GI50 (PC-3 [8]): 10 nM | GI50 (HCT-15): 10 nM | GI50 (MDA-MB-231 [9]): 10 nM | GI50 (NUGC-3): 10 nM | GI50 (NCI-H23): 10 nM | GI50 (ACHN): 10 nM

C[C@@]12CC(=O)[C@@]3(O)[C@](O)(CC[C@H]4C(=O)c5c(O)cccc5[C@@H](O)[C@@]43O1)C2
IC50 (PC-3 [10]): 1380 nM

Cc1cc(O)c2cc3c(c(O)c2c1)C(=O)c1ccc([C@H]2C[C@@H](O)[C@H](O[C@H]4CC[C@H](OC5=CC(=O)[C@@H](C)OC5)[C@H](C)O4)[C@@H](C)O2)c(O)c1C3=O
IC50 (Jurkat): 3000 nM

C[C@@H]1O[C@@H](O[C@H]2CC[C@H](O[C@H]3[C@H](O)C[C@H](c4ccc5c(c4O)C(=O)c4ccc6c(c4C5=O)C(=O)C[C@](C)(O)C6)O[C@@H]3C)O[C@H]2C)CCC1=O
IC50 (HepG2 [11]): 2400 nM | IC50 (HCT-116 [12]): 2400 nM | IC50 (MDA-MB-231 [13]): 2400 nM | IC50 (NCI-H460): 2400 nM | IC50 (MDA-MB-435): 2400 nM | IC50 (MCF-10A): 2400 nM

CC(=O)C[C@H](SCc1cc2cc(C)cc(O)c2c2c1C(=O)c1c(O)cccc1C2=O)C(=O)O
MIC (Candida albicans): 20 µM (≈ 9.29 µg/mL) | MIC (Staphylococcus aureus [14]): 20 µM (≈ 9.29 µg/mL)

Cc1cc(O)c2c(c1)C1c3c-2c(O)c2cccc(O)c2c3OC(=O)C1c1c[nH]c2ccccc12 (stereo not given)
IC50 (MCF7): 7000 nM | IC50 (HepG2 [15]): 7000 nM | IC50 (A549 [16]): 7000 nM | IC50 (SF-268): 7000 nM

CC(=O)N[C@@H](CSc1cc2cc(C)cc(O)c2c2c1C(=O)c1c(O)cccc1C2=O)C(=O)O
IC50 (PC-3 [17]): 19400 nM | MIC (Candida albicans): 20 µM (≈ 9.31 µg/mL) | MIC (Staphylococcus aureus [14]): 20 µM (≈ 9.31 µg/mL) | IC50 (A2780): 10200 nM

CO[C@@H]1C[C@@H](O[C@H]2C=C(C)[C@@H](O)[C@]3(O)[C@@H](OC(=O)O)[C@@H](O)C4=C(C(=O)c5ccc([C@H]6C[C@@H](O[C@H]7C[C@](C)(O)[C@H](O[C@H]8CC[C@H](OC(N)=O)[C@@H](C)O8)[C@@H](C)O7)[C@@H](O)[C@@H](C)O6)c(O)c5C4=O)[C@]23O)O[C@@H](C)[C@H]1O
MIC (Pseudomonas aeruginosa): 16 µg/mL | MIC (Bacillus subtilis): 8 µg/mL | MIC (Klebsiella pneumoniae): 16 µg/mL | MIC (Escherichia coli [18]): 16 µg/mL | MIC (Staphylococcus aureus [19]): 16 µg/mL

CO[C@@H]1C[C@@H](O[C@H]2C=C(C)C[C@]3(O)[C@@H](OC(=O)O)[C@@H](O)C4=C(C(=O)c5ccc([C@H]6C[C@@H](O[C@H]7C[C@](C)(O)[C@H](O[C@H]8CC[C@H](OC(N)=O)[C@@H](C)O8)[C@@H](C)O7)[C@@H](O)[C@@H](C)O6)c(O)c5C4=O)[C@]23O)O[C@@H](C)[C@H]1O
MIC (Pseudomonas aeruginosa): 16 µg/mL | MIC (Bacillus subtilis): 8 µg/mL | MIC (Klebsiella pneumoniae): 16 µg/mL | MIC (Escherichia coli [18]): 16 µg/mL | MIC (Staphylococcus aureus [19]): 16 µg/mL

CN[C@@H]1C[C@H](c2c(O)c3c(c4c(O)cc(C)cc24)C(=O)c2cccc(O)c2C3=O)O[C@H](C)[C@H]1O
IC50 (BT-549): 600 nM | IC50 (MDA-MB-468): 600 nM | IC50 (MDA-MB-231 [20]): 600 nM

CC(C)c1cc(=O)c2c(cc(O)c3c(=O)c4c(O)cccc4c(=O)c32)c1=O
MIC (Staphylococcus aureus [6]): 3.12 µg/mL
